According to patent US12102667B2, “Polypeptides and antibiotics against gram-negative bacterium comprising the same” (priority 2021, dated 2024):
“Also recorded” adds a separate entry of the source. Where two headings read alike, the source gives them in different places.

Key:
[1] = test system: K. pneumoniae; settings: K. pneumoniae CCARM 10143; cited from earlier work
[2] = test system: E. coli; settings: cited from earlier work
[3] = test system: E. coli; assay: Checkerboard assay (MIC in combination, FIC index); assay type: cell-based, Escherichia coli; design: MIC of colistin: unit not given here; settings: for MIC of colistin: colistin-resistant E. coli FORC81
Protocol: LNT113 was vertically diluted 2-fold and the antibiotic was serially diluted horizontally in a 96-well plate. Bacterium at a concentration of 10^6 CFU/ml were added to each well in a CAA medium. […] The fractional inhibitory concentration (FIC) for the LNT113 or antibiotic was calculated by dividing the MIC of two drugs by combining it with the MIC of each drug alone. […] The FICI was considered as a synergistic effect ≤0.5, an additive >0.5 ˜≤1, an independent effect (indifference)>1.0 ˜≤2, and an antagonistic effect (antagonism) >2.

[4] = test system: E. coli; assay: Antibacterial activity analysis (colony count after 2 hours in buffer); assay type: cell-based, Escherichia coli; settings: 2 μM
Protocol: (§1) The antibacterial activity of the purified protein was tested for E. coli and various K. pneumoniae strains. The bacterium were grown to an exponential phase (OD600=0.5) and harvested by centrifugation at 12,000×g for 3 minutes. Then, the pellets were washed with reaction buffer solution (20 mM Tris-HCl, pH 7.5) and diluted to about 10^6 cells/ml in the buffer solution. Then, 100 μl bacterial suspension was mixed with the purified endolysin of 100 μl in the reaction buffer solution and incubated at 37° C. for 2 hours. Finally, the mixture was diluted with PBS and loaded on an LB plate. After culturing at 37° C. overnight, the bacterial colonies were counted. All the analysis was performed in triplicate.
(§2) The same reaction was performed for the selected subject bacterium in 20 mM HEPES-NaOH, 150 mM NaCl [pH 7.4], and the unique antibacterial activity of Tris and dependence of endolysin for turgor pressure were excluded (FIG. 10a and FIG. 10b). […] The bacterial cells grown geometrically were cultured with 2 μM endolysin in low tonicity buffers (20 mM Tris-HCl, pH 7.5 or 20 mM HEPES, pH 7.5) or high tonicity buffers (buffer solution comprising 150 mM NaCl) at 37° C. for 2 hours. The cells treated with storage buffer solution (20 mM Tris-HCl, pH 7.5, 150 mM NaCl buffer solution (pH 7.5)) were used as a negative control group. The dotted line represents the detection limit (1 Log CFU/ml).
For this, endolysin EC340 at a concentration of 2 μM and each test bacterium were added to reaction buffer (20 mM Tris-Cl, pH 7.5) so that the final concentration was to be 200 μl, and were left at 37° C. for 2 hours. After 2 hours, the number of colonies of Acinetobacter baumannii, Pseudomonas aeruginosa and Escherichia coli was confirmed, and the result was shown in FIG. 3.

[5] = test system: K. pneumoniae; assay: as above; assay type: cell-based, Klebsiella pneumoniae; settings: 2 μM
Protocol: as §1, §2

[6] = antibiotic combined with LNT113, E. coli ATCC 8739
[7] = antibiotic combined with LNT113, E. coli ATCC 51739
[8] = antibiotic combined with LNT113, E. coli CCARM 1A746
[9] = antibiotic combined with LNT113, E. coli FORC81
[10] = antibiotic combined with LNT113, E. coli UPEC 3150
[11] = antibiotic combined with LNT113, E. coli strains overall

## Trimethoprim-sulfamethoxazole
[1]
  MIC of antibiotics: ≥32 µg/mL
[2]; E. coli CCARM 1A746
  MIC of antibiotics: ≥128 µg/mL

## CCn1cc(C(=O)O)c(=O)c2cc(F)c(N3CCNCC3)cc21 [Norfloxacin]
[2]; E. coli CCARM 1A746
  MIC of antibiotics: ≥128 µg/mL
[2]; E. coli CCARM 1B684
  MIC of antibiotics: 32 µg/mL

## C[C@@H](O)[C@H]1C(=O)N2C(C(=O)O)=C(S[C@@H]3CN[C@H](C(=O)N(C)C)C3)[C@H](C)[C@H]12 [Meropenem]
[3]; [6]
  Fractional inhibitory concentration index (FICI) of LNT113 using various antibiotics: 0.63
[3]; [7]
  Fractional inhibitory concentration index (FICI) of LNT113 using various antibiotics: 0.75
[3]; [8]
  Fractional inhibitory concentration index (FICI) of LNT113 using various antibiotics: 1
[3]; [9]
  Fractional inhibitory concentration index (FICI) of LNT113 using various antibiotics: 2
[3]; [10]
  Fractional inhibitory concentration index (FICI) of LNT113 using various antibiotics: 1
[3]; [11]
  combination effect with LNT113, in words: slight additive effect

## CC[C@H]1OC(=O)[C@H](C)[C@@H](O[C@H]2C[C@@](C)(OC)[C@@H](O)[C@H](C)O2)[C@H](C)[C@@H](O[C@@H]2O[C@H](C)C[C@H](N(C)C)[C@H]2O)[C@](C)(O)C[C@@H](C)CN(C)[C@H](C)[C@@H](O)[C@]1(C)O [Azithromycin]
[3]; [6]
  Fractional inhibitory concentration index (FICI) of LNT113 using various antibiotics: 1
[3]; [7]
  Fractional inhibitory concentration index (FICI) of LNT113 using various antibiotics: 0.75
[3]; [8]
  Fractional inhibitory concentration index (FICI) of LNT113 using various antibiotics: 1
[3]; [9]
  Fractional inhibitory concentration index (FICI) of LNT113 using various antibiotics: 2
[3]; [10]
  Fractional inhibitory concentration index (FICI) of LNT113 using various antibiotics: 0.75

## CN(C)c1cc(NC(=O)CNC(C)(C)C)c(O)c2c1C[C@H]1C[C@H]3[C@H](N(C)C)C(O)=C(C(N)=O)C(=O)[C@@]3(O)C(O)=C1C2=O [Tigecycline]
[3]; [6]
  Fractional inhibitory concentration index (FICI) of LNT113 using various antibiotics: 2
[3]; [7]
  Fractional inhibitory concentration index (FICI) of LNT113 using various antibiotics: 0.63
[3]; [8]
  Fractional inhibitory concentration index (FICI) of LNT113 using various antibiotics: 2
[3]; [9]
  Fractional inhibitory concentration index (FICI) of LNT113 using various antibiotics: 2
[3]; [10]
  Fractional inhibitory concentration index (FICI) of LNT113 using various antibiotics: 0.63

## NC[C@H]1O[C@H](O[C@H]2[C@H](O)[C@@H](O[C@H]3O[C@H](CO)[C@@H](O)[C@H](N)[C@H]3O)[C@H](N)C[C@@H]2N)[C@H](O)[C@@H](O)[C@@H]1O [Kanamycin]
[3]; [6]
  Fractional inhibitory concentration index (FICI) of LNT113 using various antibiotics: 2
[3]; [7]
  Fractional inhibitory concentration index (FICI) of LNT113 using various antibiotics: 1
[3]; [9]
  Fractional inhibitory concentration index (FICI) of LNT113 using various antibiotics: 1
[3]; [10]
  Fractional inhibitory concentration index (FICI) of LNT113 using various antibiotics: 1

## CC(C)(O/N=C(\C(=O)N[C@@H]1C(=O)N2C(C(=O)[O-])=C(C[n+]3ccccc3)CS[C@H]12)c1csc(N)n1)C(=O)O [Ceftazidime]
[3]; [6]
  Fractional inhibitory concentration index (FICI) of LNT113 using various antibiotics: 2
[3]; [7]
  Fractional inhibitory concentration index (FICI) of LNT113 using various antibiotics: 2
[3]; [8]
  Fractional inhibitory concentration index (FICI) of LNT113 using various antibiotics: 2
[3]; [9]
  Fractional inhibitory concentration index (FICI) of LNT113 using various antibiotics: 1
[3]; [10]
  Fractional inhibitory concentration index (FICI) of LNT113 using various antibiotics: 1
[3]; [11]
  combination effect with LNT113, in words: Neither ceftazidime and kanamycin showed a synergistic or additive effect; also recorded: little additive effect

## [H]/N=C(/N)N[C@H]1[C@H](O)[C@@H](O)[C@H](O[C@@H]2O[C@@H](C)[C@](O)(C=O)[C@H]2O[C@@H]2O[C@@H](CO)[C@H](O)[C@@H](O)[C@@H]2NC)[C@@H](N/C(N)=N\[H])[C@@H]1O [Streptomycin]
[2]; E. coli CCARM 1A746
  MIC of antibiotics: ≥128 µg/mL
[2]; E. coli CCARM 1B684
  MIC of antibiotics: ≥128 µg/mL

## O=C(N[C@H](CO)[C@H](O)c1ccc([N+](=O)[O-])cc1)C(Cl)Cl [Chloramphenicol]
[3]; [6]
  Fractional inhibitory concentration index (FICI) of LNT113 using various antibiotics: 1
[3]; [7]
  Fractional inhibitory concentration index (FICI) of LNT113 using various antibiotics: 0.75
[3]; [9]
  Fractional inhibitory concentration index (FICI) of LNT113 using various antibiotics: 2
[3]; [10]
  Fractional inhibitory concentration index (FICI) of LNT113 using various antibiotics: 0.75

## Colistin
[3]; 5 different E. coli strains
  strains in which the synergistic effect with LNT113 was observed: 4 strains among 5 strains
[3]; E. coli ATCC8738, EC340 0
  MIC of endolysin combined with colistin: Colistin: 2 µg/mL
[3]; E. coli ATCC8738, EC340 16
  MIC of endolysin combined with colistin: Colistin: 0.125 µg/mL
[3]; E. coli ATCC8738, EC340 32
  MIC of endolysin combined with colistin: Colistin: 0.0625 µg/mL
[3]; E. coli ATCC8738, EC340 <2
  MIC of endolysin combined with colistin: Colistin: 0.25 µg/mL
[3]; E. coli ATCC8738, mtEC340 0
  MIC of endolysin combined with colistin: Colistin: 2 µg/mL
[3]; E. coli ATCC8738, mtEC340 16
  MIC of endolysin combined with colistin: Colistin: 0.125 µg/mL
[3]; E. coli ATCC8738, mtEC340 32
  MIC of endolysin combined with colistin: Colistin: 0.125 µg/mL
[3]; E. coli ATCC8738, mtEC340 <2
  MIC of endolysin combined with colistin: Colistin: 0.25 µg/mL
[3]; E. coli ATCC 8739
  combination effect with LNT113 (FICI class): synergistic effect (a synergistic effect ≤0.5)
[3]; E. coli ATOCB739, LNT113 0
  MIC of endolysin combined with colistin: Colistin: 2 µg/mL
[3]; E. coli ATOCB739, LNT113 1
  MIC of endolysin combined with colistin: Colistin: 1 µg/mL
[3]; E. coli ATOCB739, LNT113 2
  MIC of endolysin combined with colistin: Colistin: 0.5 µg/mL
[3]; E. coli ATOCB739, LNT113 4
  MIC of endolysin combined with colistin: Colistin: 0.0625 µg/mL
[3]; E. coli FORC81
  combination effect with LNT113 (FICI class): synergistic effect (a synergistic effect ≤0.5)
[3]; E. coli FORC81, LNT113 0
  MIC of endolysin combined with colistin: Colistin: 16 µg/mL
[3]; E. coli FORC81, LNT113 2
  MIC of endolysin combined with colistin: Colistin: 4 µg/mL
[3]; E. coli FORC81, LNT113 4
  MIC of endolysin combined with colistin: Colistin: 1 µg/mL
[3]; E. coli FORC81, LNT113 <0.25
  MIC of endolysin combined with colistin: Colistin: 8 µg/mL
[3]; E. coli UPEC 3150
  combination effect with LNT113 (FICI class): synergistic effect (a synergistic effect ≤0.5)
[3]; E. coli UPEC3150, LNT113 0
  MIC of endolysin combined with colistin: Colistin: 4 µg/mL
[3]; E. coli UPEC3150, LNT113 1
  MIC of endolysin combined with colistin: Colistin: 2 µg/mL
[3]; E. coli UPEC3150, LNT113 2
  MIC of endolysin combined with colistin: Colistin: 0.5 µg/mL
[3]; E. coli UPEC3150, LNT113 4
  MIC of endolysin combined with colistin: Colistin: 0.0625 µg/mL
[3]; Table 3
  MIC of colistin in presence of endolysin EC340 or mtEC340: significantly reduced
[3]; [6]
  Fractional inhibitory concentration index (FICI) of LNT113 using various antibiotics: 0.25
[3]; [7]
  Fractional inhibitory concentration index (FICI) of LNT113 using various antibiotics: 0.5
[3]; [8]
  Fractional inhibitory concentration index (FICI) of LNT113 using various antibiotics: 0.63
[3]; [9]
  Fractional inhibitory concentration index (FICI) of LNT113 using various antibiotics: 0.5
[3]; [10]
  Fractional inhibitory concentration index (FICI) of LNT113 using various antibiotics: 0.38
[3]; antibiotic combined with LNT113, E. coli UPEC 3150, listed as colistin
  Fractional inhibitory concentration index (FICI) of LNT113 using various antibiotics: 0.375
[3]; [11]
  combination effect with LNT113 (FICI class): synergistic effect (a synergistic effect ≤0.5)
[3]; colistin alone
  MIC of colistin: 16
[3]; in combination with LNT113 of 4 mg/ml
  MIC of colistin: 1
[4]; colistin-resistant E. coli FORC81, 2 hours
  decrease of bacterial cells: 1.2 log

B1: mtEC340: mutant EC340 with H39S, D43H, T45E, A73V, A81S, T101A and I113V (protein)
chain: VSRNISNNGIKFTAAFEGFRGTAYRATPNEKYLTIGYGSYGPHVEPGKTITPGQGLLLLNRDMAKAVAAVDAVAHHSLTQSQFDAVCDLVYNAGAGVIAAATGTGKALRSGDVATLRAKLALFINQNGKPLLGLRRRTAGRLALFDGKPWQEAEAIGRAVKG
modifications: synthetic_mtEC340
notes: mutant EC340 with H39S, D43H, T45E, A73V, A81S, T101A and I113V
[3]; E. coli ATCC8738, Colistin 0
  MIC of endolysin combined with colistin: mtEC340: >128 µg/mL
[3]; E. coli ATCC8738, Colistin 0.125 (row with mtEC340 16)
  MIC of endolysin combined with colistin: mtEC340: 16 µg/mL
[3]; E. coli ATCC8738, Colistin 0.125 (row with mtEC340 32)
  MIC of endolysin combined with colistin: mtEC340: 32 µg/mL
[3]; E. coli ATCC8738, Colistin 0.25
  MIC of endolysin combined with colistin: mtEC340: <2 µg/mL
[4]; E. coli ATCC8739, ATCC25922, CCARM1A746, CCARM1B684, 2 hours, Tris-HCl pH 7.5
  antibacterial activity (number of bacterium): more excellent antibacterial activity
[4]; E. coli ATCC 8739, Tris or Hepes buffer with 150 mM NaCl
  effect of adding NaCl on antibacterial activity: almost inactivated
[4]; various E. coli strains, 2 hours
  increase of antibacterial activity versus EC340: up to 1 log
[5]; K. pneumoniae ATCC700603, KCTC2208, CCARM10143, F85, 2 hours, Tris-HCl pH 7.5
  antibacterial activity (number of bacterium): more excellent antibacterial activity
[5]; K. pneumoniae KCTC 2208, Tris or Hepes buffer with 150 mM NaCl
  effect of adding NaCl on antibacterial activity: almost inactivated
[5]; various K. pneumoniae strains, 2 hours
  increase of antibacterial activity versus EC340: up to 1 log
